Source: paper PMC10023787, “Trio-pharmacophore DNA-encoded chemical library for simultaneous selection of fragments and linkers” (Nature Communications, 2023)
Entries after “also recorded” stand apart in the source; their conditions may differ. Like-named read-outs stand apart in the source and are kept apart here.

Columns and labels:
[1] = biological target: T1, MMP-2 (Homo sapiens, UniProt P08253); assay: MMP-2 inhibition assay (fluorogenic peptide substrate); assay type: biochemical
T1 construct: purchased Sino Biological 10082-HNAH
T1 sequence (P08253 110-660): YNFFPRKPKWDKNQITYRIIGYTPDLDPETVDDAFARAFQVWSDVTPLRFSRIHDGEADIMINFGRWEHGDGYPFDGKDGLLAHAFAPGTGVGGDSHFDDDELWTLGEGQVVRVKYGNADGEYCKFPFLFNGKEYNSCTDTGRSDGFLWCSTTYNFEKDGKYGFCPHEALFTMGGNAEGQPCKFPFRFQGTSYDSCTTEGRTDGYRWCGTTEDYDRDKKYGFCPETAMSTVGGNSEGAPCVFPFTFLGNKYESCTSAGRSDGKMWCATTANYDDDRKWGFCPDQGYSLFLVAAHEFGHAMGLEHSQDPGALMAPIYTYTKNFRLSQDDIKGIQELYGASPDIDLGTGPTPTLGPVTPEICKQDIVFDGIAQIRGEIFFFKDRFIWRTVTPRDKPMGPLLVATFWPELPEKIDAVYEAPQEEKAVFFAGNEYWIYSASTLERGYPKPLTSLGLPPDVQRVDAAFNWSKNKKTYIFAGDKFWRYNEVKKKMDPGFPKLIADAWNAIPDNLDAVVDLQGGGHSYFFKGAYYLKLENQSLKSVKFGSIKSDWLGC
Method in brief: (§1)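 Hydrolysis of DNP-Pro-Leu-Gly-Met-Trp-Ser-Arg (25 μM final) was tracked kinetically at em 360 nm over 30 min. Enzymes, APMA-activated and at 10 nM (MMP-9) or 6.5 nM (MMP-2) final, sat 30 min at RT with inhibitor in pH 7.5 Tris buffer with CaCl2 and Brij 35 first. Logistic fitting of Vmax against concentration gave IC50, in triplicate.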

[2] = biological target: T2, MMP-9 (Homo sapiens, UniProt P14780); assay: MMP-9 inhibition assay (fluorogenic peptide substrate); assay type: biochemical
T2 construct: purchased Sino Biological 10327-HNAH
T2 sequence (P14780 107-707 limits assumed): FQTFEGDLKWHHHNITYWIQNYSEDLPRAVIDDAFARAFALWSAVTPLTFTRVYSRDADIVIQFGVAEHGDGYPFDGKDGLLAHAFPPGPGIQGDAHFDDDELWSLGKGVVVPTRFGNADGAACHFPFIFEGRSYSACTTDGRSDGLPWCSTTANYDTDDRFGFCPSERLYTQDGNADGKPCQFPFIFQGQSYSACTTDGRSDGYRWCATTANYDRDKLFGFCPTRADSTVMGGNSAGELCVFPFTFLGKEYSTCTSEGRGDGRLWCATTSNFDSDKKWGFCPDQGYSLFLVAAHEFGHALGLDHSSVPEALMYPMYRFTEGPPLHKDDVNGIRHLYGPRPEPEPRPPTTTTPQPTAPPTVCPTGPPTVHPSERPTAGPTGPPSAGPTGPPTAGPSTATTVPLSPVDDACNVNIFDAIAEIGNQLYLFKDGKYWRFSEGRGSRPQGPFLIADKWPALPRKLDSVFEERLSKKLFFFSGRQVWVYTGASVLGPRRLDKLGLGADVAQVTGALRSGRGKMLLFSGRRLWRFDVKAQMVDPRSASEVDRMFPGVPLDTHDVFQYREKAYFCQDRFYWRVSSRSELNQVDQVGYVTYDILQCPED
Method in brief: as §1

remaining activity at 0.0156098 µM ([1]; Figure 5a, fragment concentration 0.0156098 µM, read-out: Normalized activity (Mean)): 92.7%
remaining activity at 0.0780488 µM ([1]; Figure 5a, fragment concentration 0.0780488 µM, read-out: Normalized activity (Mean)): 95.8%
remaining activity at 0.390244 µM ([1]; Figure 5a, fragment concentration 0.390244 µM, read-out: Normalized activity (Mean)): 93.9%
remaining activity at 1.95122 µM ([1]; Figure 5a, fragment concentration 1.95122 µM, read-out: Normalized activity (Mean)): 110%
remaining activity at 9.7561 µM ([1]; Figure 5a, fragment concentration 9.7561 µM, read-out: Normalized activity (Mean)): 93.7%
remaining activity at 48.7805 µM ([1]; Figure 5a, fragment concentration 48.7805 µM, read-out: Normalized activity (Mean)): 92.7%
remaining activity at 243.902 µM ([1]; Figure 5a, fragment concentration 243.902 µM, read-out: Normalized activity (Mean)): 92.2%
remaining activity at 1219.51 µM ([1]; Figure 5a, fragment concentration 1219.51 µM, read-out: Normalized activity (Mean)): 85.5%
remaining activity at 0.0156 µM ([1]; MMP-2, concentration 0.0156 µM, read-out: Mean (dose-response, Supplementary fig 17)): 92.7%
remaining activity at 0.08 µM ([1]; MMP-2, concentration 0.08 µM, read-out: Mean (dose-response, Supplementary fig 17)): 95.8%
remaining activity at 0.39 µM ([1]; MMP-2, concentration 0.39 µM, read-out: Mean (dose-response, Supplementary fig 17)): 93.9%
remaining activity at 1.95 µM ([1]; MMP-2, concentration 1.95 µM, read-out: Mean (dose-response, Supplementary fig 17)): 110%
remaining activity at 9.76 µM ([1]; MMP-2, concentration 9.76 µM, read-out: Mean (dose-response, Supplementary fig 17)): 93.7%
remaining activity at 48.78 µM ([1]; MMP-2, concentration 48.78 µM, read-out: Mean (dose-response, Supplementary fig 17)): 92.7%
remaining activity at 243.9 µM ([1]; MMP-2, concentration 243.90 µM, read-out: Mean (dose-response, Supplementary fig 17)): 92.2%
remaining activity at 1219.51 µM ([1]; MMP-2, concentration 1219.51 µM, read-out: Mean (dose-response, Supplementary fig 17)): 85.5%
remaining activity at 0.078016 µM ([2]; Figure 5b, fragment concentration 0.078016 µM, read-out: Normalized activity (Mean)): 96.6%
remaining activity at 0.39008 µM ([2]; Figure 5b, fragment concentration 0.39008 µM, read-out: Normalized activity (Mean)): 92.7%
remaining activity at 1.9504 µM ([2]; Figure 5b, fragment concentration 1.9504 µM, read-out: Normalized activity (Mean)): 92.2%
remaining activity at 9.752 µM ([2]; Figure 5b, fragment concentration 9.752 µM, read-out: Normalized activity (Mean)): 92.5%
remaining activity at 48.76 µM ([2]; Figure 5b, fragment concentration 48.76 µM, read-out: Normalized activity (Mean)): 86.3%
remaining activity at 243.8 µM ([2]; Figure 5b, fragment concentration 243.8 µM, read-out: Normalized activity (Mean)): 85%
remaining activity at 1219 µM ([2]; Figure 5b, fragment concentration 1219 µM, read-out: Normalized activity (Mean)): 74.6%
remaining activity at 0.08 µM ([2]; MMP-9, concentration 0.08 µM, read-out: Mean (dose-response, Supplementary fig 17)): 96.6%
remaining activity at 0.39 µM ([2]; MMP-9, concentration 0.39 µM, read-out: Mean (dose-response, Supplementary fig 17)): 92.7%
remaining activity at 1.95 µM ([2]; MMP-9, concentration 1.95 µM, read-out: Mean (dose-response, Supplementary fig 17)): 92.2%
remaining activity at 9.75 µM ([2]; MMP-9, concentration 9.75 µM, read-out: Mean (dose-response, Supplementary fig 17)): 92.5%
remaining activity at 48.76 µM ([2]; MMP-9, concentration 48.76 µM, read-out: Mean (dose-response, Supplementary fig 17)): 86.3%
remaining activity at 243.8 µM ([2]; MMP-9, concentration 243.80 µM, read-out: Mean (dose-response, Supplementary fig 17)): 85%
remaining activity at 1219 µM ([2]; MMP-9, concentration 1219.00 µM, read-out: Mean (dose-response, Supplementary fig 17)): 74.6%
SMILES: O=C(O)CNC(=O)NC12CC3CC(CC(C3)C1)C2 [Compound 66]
inhibitory effect ([1]; in words): No inhibitory effects could be measured; also recorded: did not exhibit meaningful activity
inhibitory effect ([2]; in words): No inhibitory effects could be measured; also recorded: did not exhibit meaningful activity
